Measured values from US20140228377A1, “METHYLPIPERIDINE DERIVATIVE” (TAISHO PHARMACEUTICAL CO., LTD., priority 2011, published 2014).

Columns and labels:
[1] = target: T1, human orexin-1 receptor (hOX1R) (Homo sapiens, UniProt O43613); assay: Orexin antagonistic activity assay (intracellular Ca2+, FDSS) in CHO cells expressing hOX1R; type: cell-based; settings: CHO cells expressing hOX1R; ligand peptide 300 pM; Fluo-3 maximum fluorescence intensity; read-out: IC50 value OX1
T1 construct: expressed in transfected cells; host or cells: Chinese hamster ovary (CHO) cells
T1 sequence (O43613 1-425): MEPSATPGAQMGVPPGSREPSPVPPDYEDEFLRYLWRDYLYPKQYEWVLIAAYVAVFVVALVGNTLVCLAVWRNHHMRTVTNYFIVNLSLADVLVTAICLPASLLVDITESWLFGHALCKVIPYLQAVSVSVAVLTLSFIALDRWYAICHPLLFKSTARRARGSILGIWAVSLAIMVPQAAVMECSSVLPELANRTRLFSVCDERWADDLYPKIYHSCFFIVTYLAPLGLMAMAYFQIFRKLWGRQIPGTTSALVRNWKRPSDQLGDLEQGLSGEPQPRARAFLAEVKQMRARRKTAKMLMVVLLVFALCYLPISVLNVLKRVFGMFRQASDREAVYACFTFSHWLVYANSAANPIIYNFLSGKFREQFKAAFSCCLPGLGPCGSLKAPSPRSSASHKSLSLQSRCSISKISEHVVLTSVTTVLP
Protocol: (§1) The antagonistic activity of each test compound against human orexin-1 receptor (hOX1R) and orexin-2 receptor (hOX2R) was assayed by a modification of a method described in the literature (Toshikatsu Okumura et al., Biochemical and Biophysical Research Communications 280, 976-981, 2001). Chinese hamster ovary (CHO) cells forced to express hOX1R or hOX2R were inoculated at a density of 20,000 cells/well to a 96-well Black clear bottom plate (Nunc) and cultured at 37° C. for 16 hours under 5% CO2 conditions in a Ham's F-12 medium containing 0.1 mM MEM nonessential amino acids, 0.5 mg/ml G418, and 10% fetal bovine serum (all from Invitrogen Corp.). After removal of the medium, 100 μL of a buffer solution for assay (25 mM HEPES (Dojindo Laboratories), Hanks' balanced salt solution (Invitrogen Corp.), 0.1% bovine serum albumin, 2.5 mM probenecid, and 200 μg/ml Amaranth (all from Sigma-Aldrich Corp.), pH 7.4) containing 0.5 μM Fluo-3 AM ester (Dojindo Laboratories) was added to the cells, which were then incubated at 37° C. for 60 minutes under 5% CO2 conditions. After removal of the buffer solution for assay containing Fluo-3 AM ester, each test compound was dissolved at a concentration of 10 mM in dimethyl sulfoxide and diluted with a buffer solution for assay. Then, 150 μL of the solution was added to the cells, which were then incubated for 30 minutes.
(§2) A ligand peptide (Pyr-[…]NH2; Peptide Institute, Inc.) derived from human orexin-A by the substitution of two amino acids was diluted with a buffer solution for assay to final concentrations of 300 pM for hOX1R and 3 nM for hOX2R. Reaction was initiated by the addition of 50 μL of this ligand solution. The fluorescence intensity of the reaction was measured in each well every second for 3 minutes using Functional Drug Screening System (FDSS; manufactured by Hamamatsu Photonics K.K.), and the maximum fluorescence intensity was used as an index for intracellular Ca^2+ concentration to determine antagonistic activity. The antagonistic activity of the test compound was calculated with fluorescence intensity from a well supplemented with only a diluting buffer solution as 100% and fluorescence intensity from a well supplemented with a buffer solution free from the ligand and the compound as 0%. The 50% inhibitory concentration (IC50 value) was determined on the basis of fluorescence intensity derived from the test compound added at varying concentrations.

[2] = target: T2, orexin-2 receptor (hOX2R) (Homo sapiens, UniProt O43614); assay: Orexin antagonistic activity assay (intracellular Ca2+, FDSS) in CHO cells expressing hOX2R; type: cell-based; settings: CHO cells expressing hOX2R; ligand peptide 3 nM; Fluo-3 maximum fluorescence intensity; read-out: IC50 value OX2
T2 construct: expressed in transfected cells; host or cells: Chinese hamster ovary (CHO) cells
T2 sequence (O43614 1-444): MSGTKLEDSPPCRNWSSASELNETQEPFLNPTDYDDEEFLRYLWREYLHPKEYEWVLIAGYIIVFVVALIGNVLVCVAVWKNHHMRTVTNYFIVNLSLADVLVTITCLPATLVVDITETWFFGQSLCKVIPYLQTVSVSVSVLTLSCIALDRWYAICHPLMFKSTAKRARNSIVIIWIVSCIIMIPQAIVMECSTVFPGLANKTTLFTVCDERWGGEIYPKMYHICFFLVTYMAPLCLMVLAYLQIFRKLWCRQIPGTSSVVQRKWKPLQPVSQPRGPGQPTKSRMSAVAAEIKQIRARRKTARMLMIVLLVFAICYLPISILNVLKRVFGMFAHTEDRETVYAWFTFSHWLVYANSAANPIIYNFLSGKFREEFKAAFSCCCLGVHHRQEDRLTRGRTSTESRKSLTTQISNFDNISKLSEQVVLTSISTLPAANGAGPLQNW
Protocol: as §1, §2

| Compound | IC50 [1] | IC50 [2] |
| --- | --- | --- |
| C[C@@H]1CC[C@@H](c2nc3cc(Cl)ccc3o2)CN1C(=O)c1cc(Br)ccc1-n1nccn1 [Example 22, [5-Bromo-2-(2H-1,2,3-triazol-2-yl)phenyyl][(2R,5R)-5-(5-chloro-1,3-benzoxazol-2-yl)-2-methylpiperidin-1-yl]methanone] | 0.0319 µM | 0.0078 µM |
| C[C@@H]1CC[C@@H](c2nc3cc(Cl)ccc3o2)CN1C(=O)c1cc(F)ccc1-c1ncc(F)cn1 [Example 23, [(2R,5R)-5-(5-Chloro-1,3-benzoxazol-2-yl)-2-methylpiperidin-1-yl][5-fluoro-2-(5-fluoropyrimidin-2-yl)phenyl]methanone] | 0.168 µM | 0.0225 µM |
| COc1cnc(-c2ccc(F)cc2C(=O)N2C[C@H](c3nc4cc(Cl)ccc4o3)CC[C@H]2C)nc1 [Example 24, [(2R,5R)-5-(5-Chloro-1,3-benzoxazol-2-yl)-2-methylpiperidin-1-yl][5-fluoro-2-(5-methoxypyrimidin-2-yl)phenyl]methanone] | 0.0992 µM | 0.0085 µM |
| COc1ccc(-n2nccn2)c(C(=O)N2C[C@H](c3nc4cc(Cl)ccc4o3)CC[C@H]2C)c1 [Example 25, [(2R,5R)-5-(5-Chloro-1,3-benzoxazol-2-yl)-2-methylpiperidin-1-yl][5-methoxy-2-(2H-1,2,3-triazol-2-yl)phenyl]methanone] | 0.387 µM | 0.066 µM |
| Cc1ccc(C(=O)N2C[C@H](c3nc4cc(Cl)ccc4o3)CC[C@H]2C)c(-n2nccn2)c1 [Example 26, [(2R,5R)-5-(5-Chloro-1,3-benzoxazol-2-yl)-2-methylpiperidin-1-yl][4-methyl-2-(2H-1,2,3-triazol-2-yl)phenyl]methanone] | 0.011 µM | 0.0084 µM |
| C[C@@H]1CC[C@@H](c2nc3cc(Cl)ccc3o2)CN1C(=O)c1ccc(Cl)cc1-n1nccn1 [Example 27, [(2R,5R)-5-(5-Chloro-1,3-benzoxazol-2-yl)-2-methylpiperidin-1-yl][4-chloro-2-(2H-1,2,3-triazol-2-yl)phenyl]methanone] | 1.79 µM | 0.187 µM |
| C[C@@H]1CC[C@@H](c2nc3cc(F)ccc3o2)CN1C(=O)c1ccccc1-n1nccn1 [Example 28, [(2R,5R)-5-(5-Fluoro-1,3-benzoxazol-2-yl)-2-methylpiperidin-1-yl][2-(2H-1,2,3-triazol-2-yl)phenyl]methanone] | 0.0504 µM | 0.0015 µM |
| C[C@@H]1CC[C@@H](c2nc3cc(F)ccc3o2)CN1C(=O)c1cc(F)ccc1-n1nccn1 [Example 29, [(2R,5R)-5-(5-Fluoro-1,3-benzoxazol-2-yl)-2-methylpiperidin-1-yl][5-fluoro-2-(2H-1,2,3-triazol-2-yl)phenyl]methanone] | 0.111 µM | 0.006 µM |
| C[C@@H]1CC[C@@H](c2nc3cc(F)ccc3o2)CN1C(=O)c1cc(Cl)ccc1-n1nccn1 [Example 30, [5-Chloro-2-(2H-1,2,3-triazol-2-yl)phenyl][(2R,5R)-5-(5-fluoro-1,3-benzoxazol-2-yl)-2-methylpiperidin-1-yl]methanone] | 0.0744 µM | 0.0037 µM |
| C[C@@H]1CC[C@@H](c2nc3cc(F)ccc3o2)CN1C(=O)c1ccccc1-c1ncccn1 [Example 31, [(2R,5R)-5-(5-Fluoro-1,3-benzoxazol-2-yl)-2-methylpiperidin-1-yl][2-(pyrimidin-2-yl)phenyl]methanone] | 0.0681 µM | 0.0297 µM |
| C[C@@H]1CC[C@@H](c2nc3cc(F)ccc3o2)CN1C(=O)c1cc(F)ccc1-c1ncccn1 [Example 32, [(2R,5R)-5-(5-Fluoro-1,3-benzoxazol-2-yl)-2-methylpiperidin-1-yl][5-fluoro-2-(pyrimidin-2-yl)phenyl]methanone] | 0.0249 µM | 0.0082 µM |
| C[C@@H]1CC[C@@H](c2nc3cc(F)ccc3o2)CN1C(=O)c1cc(Cl)ccc1-c1ncccn1 [Example 33, [5-Chloro-2-(pyrimidin-2-yl)phenyl][(2R,5R)-5-(5-fluoro-1,3-benzoxazol-2-yl)-2-methylpiperidin-1-yl]methanone] | 0.0446 µM | 0.0092 µM |
